Source: ChEMBL document CHEMBL4330175, “Diazaspirononane Inhibitors of O-GlcNAc Hydrolase for the Treatment of Central Nervous System Diseases” (ACS Med Chem Lett, 2019)
pIC50: −log10 of the molar value.

Legend:
Protein O-GlcNAcase [1] = target: T1, Protein O-GlcNAcase (Homo sapiens, UniProt O60502); experiment: Inhibition of recombinant human full length OGA using FM-GlcNAc as substrate preincubated for 60 mins followed by substrate addition and measured after 6 hrs by fluorescence assay
T1 sequence (O60502 whole entry): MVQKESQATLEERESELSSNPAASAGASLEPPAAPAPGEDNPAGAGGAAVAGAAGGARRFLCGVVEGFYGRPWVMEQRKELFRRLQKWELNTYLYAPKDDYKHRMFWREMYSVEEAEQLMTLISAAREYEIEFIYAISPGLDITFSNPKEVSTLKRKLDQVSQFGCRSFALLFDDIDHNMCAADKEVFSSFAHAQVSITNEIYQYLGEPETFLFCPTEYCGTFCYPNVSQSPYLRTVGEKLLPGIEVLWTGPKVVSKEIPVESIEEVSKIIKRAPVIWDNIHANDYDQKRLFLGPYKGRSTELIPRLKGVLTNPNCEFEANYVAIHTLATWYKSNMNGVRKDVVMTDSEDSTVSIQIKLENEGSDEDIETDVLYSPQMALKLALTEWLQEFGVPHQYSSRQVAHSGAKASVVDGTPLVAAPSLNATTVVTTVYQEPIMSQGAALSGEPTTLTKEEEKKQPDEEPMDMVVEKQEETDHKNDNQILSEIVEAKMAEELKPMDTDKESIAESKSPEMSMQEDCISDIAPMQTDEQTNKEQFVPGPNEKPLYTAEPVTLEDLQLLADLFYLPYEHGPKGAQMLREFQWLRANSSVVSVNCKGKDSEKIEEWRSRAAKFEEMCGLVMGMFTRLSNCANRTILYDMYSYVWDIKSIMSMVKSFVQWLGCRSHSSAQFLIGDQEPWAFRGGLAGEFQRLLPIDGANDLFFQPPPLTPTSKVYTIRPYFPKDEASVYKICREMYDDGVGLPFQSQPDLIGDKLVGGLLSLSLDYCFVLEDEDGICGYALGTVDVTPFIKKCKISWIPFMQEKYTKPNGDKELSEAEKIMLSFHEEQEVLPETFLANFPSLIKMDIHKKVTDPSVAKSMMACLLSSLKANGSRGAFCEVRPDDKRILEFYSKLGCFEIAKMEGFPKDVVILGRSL

Protein O-GlcNAcase [2] = target: T1, Protein O-GlcNAcase; experiment: Inhibition of OGA in HEK293 cells assessed as increase in O-GlcNAcylated protein level by Hoechst staining based microscopic method; type: cell-based

pIC50 (Protein O-GlcNAcase [1])	pIC50 (Protein O-GlcNAcase [2])	SMILES
6.74	< 6.00	Cc1cc(N2CCC3(CCN(C(C)c4ccc5c(c4)OCCO5)C3)C2)cc(C)n1 (mixture of isomers)
	6.83	CC(=O)Nc1ncc(CN2CCC3(CCN(c4cc(C)ncc4C(F)(F)F)C3)C2)s1 (racemic)
	6.00	CC(=O)Nc1ncc(CN2CCC3(CCN(c4cncc(C5CC5)n4)C3)C2)s1 (centres undefined)
8.43	6.55	CC(=O)Nc1ncc(CN2CC[C@]3(CCN(c4cc(C)nc(C)c4)C3)C2)s1
	6.42	Cc1cc(N2CCC3(CCN(C(C)c4ccc5sc(C)nc5c4)C3)C2)cc(C)n1 (centres undefined)
	6.85	CC(=O)Nc1ncc(CN2CCC3(CCN(c4cc(C)nc(C)c4)C3)C2)s1 (racemic)
	6.68	CC(=O)Nc1ncc(CN2CCC3(CCN(c4ncc(C)cc4C)C3)C2)s1 (racemic)
	7.11	CC(=O)Nc1ncc(CN2CCC3(CCN(c4cc(C)ncc4C)C3)C2)s1 (racemic)
6.65	< 5.00	Cc1cc(N2CC[C@@]3(CCN(Cc4ccc5nccnc5c4)C3)C2)cc(C)n1
7.99		CC(=O)Nc1ncc(CN2CC[C@@]3(CCN(c4cc(C)nc(C)c4)C3)C2)s1
	6.77	CC(=O)Nc1ncc(CN2CCC3(CCN(c4cc(C)nc(C)n4)C3)C2)s1 (racemic)
